Reference: patent US20060241166A1, “Sapphyrins and uses thereof” (Pharmacyclica, Inc., priority 2003, published 2006)
“And” between values parts separate entries of the source, which are not always exact repeats. Equal values may be shown once.

Assays:
cells [1] = assay: Annexin binding apoptosis assay, cells treated with sapphyrins for 24 hrs; format: cell-based; design: key: Back = background; Sat = saturated assay conditions: killing greater 95%
Protocol: (§1) All cell lines were grown in RPMI 1640 with 10% fetal bovine serum. Cells were treated at a density of 100,000 cells/ml with sapphyrins for 24 hrs and then assessed for apoptosis. Some cells were cultured for up to 96 hrs and then assessed for growth inhibition by counting cells using a coulter counter. For the xenograft model, 10 million Ramos cells were injected subcutaneously into the right hind flank of CD-1 nude mice that had been irradiated with 3 Gy 24 hrs prior to tumor implantation. Seven days later, the mice were treated with sapphyrin given intravenously in the tail vein q day×2 doses. Some animals were sacrificed the next day for analysis of drug uptake in tumor and spleen, tumor cell killing and tumor cell culture.
Annexin binding and propidium iodide exclusion were assayed using reagents from Biosource (Camarillo, Calif.) per manufacturer's protocol.

Animal toxicology = conditions: for Animal toxicology: dose at which deaths were seen: in vivo; for Animal toxicology: highest doses that showed no deaths: numbers in parentheses
cells [2] = assay: Growth inhibition by cell counting 96 hrs post treatment; format: cell-based; conditions: 0.5 uM sapphyrin
Protocol: as §1

[3] = tested on: Lymphoma, Leukemia and Myeloma cell lines; assay: Cell death in Lymphoma, Leukemia and Myeloma cell lines (FIG. 11); format: cell-based; conditions: 1 μM
Protocol: (§2) Cytotoxicity was evaluated using Annexin-V staining and caspase activation as markers of apoptosis. Cell lines were grown in RPMI 1640 with 10% heat inactivated fetal bovine serum. Example 12 was added to cell cultures in concentrations ranging from 100 nM-5 μM.

Ramos cells = assay: Cell death in Ramos cell line (FIG. 13-15); format: cell-based
Protocol: as §1, §2

Row | SMILES | % Annexin positive cells after 24 hrs (sapphyrin dose) (cells [1]; 1 uM sapphyrin, listed as Ex. 1) | % Annexin positive cells after 24 hrs (sapphyrin dose) (cells [1]; 2.5 uM sapphyrin, listed as Ex. 1) | % Annexin positive cells after 24 hrs (sapphyrin dose) (cells [1]; 5 uM sapphyrin) | % Annexin positive cells after 24 hrs (sapphyrin dose) (cells [1]; 0.5 Um sapphyrin) | Animal toxicology: animals dead (Animal toxicology; at 26.8 uM/kg) | Animal toxicology: dose at which deaths were seen (Animal toxicology) | Animal toxicology: highest doses that showed no deaths (Animal toxicology) | After 96 hr (GI = growth inhibition 96 hrs post treatment compared to control untreated cells) (cells [2]; listed as Ex. 1) | % Annexin positive cells after 24 hrs (sapphyrin dose) (cells [1]; 1 uM sapphyrin) | % Annexin positive cells after 24 hrs (sapphyrin dose) (cells [1]; 2.5 uM sapphyrin) | Animal toxicology: animals dead (Animal toxicology; at 40 uM/kg) | After 96 hr (GI = growth inhibition 96 hrs post treatment compared to control untreated cells) (cells [2]) | Increase in cell death [3] | Dose response of cell death (Ramos cells; Ramos cell line, 8 hours, FIG. 14) | Dose response of cell death (Ramos cells; Ramos cell lines, 48 hours incubation, FIG. 13)
1 | CCc1c(CC)c2cc3nc(cc4[nH]c(c(CC)c4CC)c4[nH]c(cc5nc(cc1[nH]2)C(CCCOC(=O)N(CCO)CCO)=C5C)c(CC)c4CC)C(C)=C3CCCOC(=O)N(CCO)CCO [Example 1] | 38% and 30% | 99% and 96% | sat | Back | 1/9 dead at | 26.8 uM/kg | 22.3 uM/kg | 91% and 52% |  |  |  |  |  |  | 
2 | CCc1c(CC)c2cc3nc(cc4[nH]c(c(CC)c4CC)c4[nH]c(cc5nc(cc1[nH]2)C(CCCOC(=O)NC(CO)(CO)CO)=C5C)c(CC)c4CC)C(C)=C3CCCOC(=O)NC(CO)(CO)CO [Example 2] |  |  | 97% | Back |  | 40 uM/kg | 30 uM/kg |  | 10% | 41% | 4/6 dead | 13% |  |  | 
3 | CCc1c(CC)c2cc3nc(cc4[nH]c(c(CC)c4CC)c4[nH]c(cc5nc(cc1[nH]2)C(CCCOC(=O)NCCOCCOCCOC)=C5C)c(CC)c4CC)C(C)=C3CCCOC(=O)NCCOCCOCCOC [Example 3] |  |  | sat | 10.6% |  |  |  |  | 93% | sat |  |  |  |  | 
4 | CCc1c(CC)c2cc3nc(cc4[nH]c(c(CC)c4CC)c4[nH]c(cc5nc(cc1[nH]2)C(CCCO)=C5C)c(CC)c4CC)C(C)=C3CCCO [Example 12] |  |  |  |  |  |  |  |  |  |  |  |  | at least a five-fold increase in cell death | An increase in the amount of Example 12 causes an increase in cell death | An increase in the amount of Example 12 causes an increase in cell death
5 | O=C1NC(=O)c2ccccc21 [Phthalimide] |  |  | sat | back |  |  |  |  | 16% |  |  | GI-50% |  |  | 
